{"source": "paper PMC7922534", "about": "“Searching for Peptide Inhibitors of T Regulatory Cell Activity by Targeting Specific Domains of FOXP3 Transcription Factor” (Biomedicines, 2021)", "key": {"[1]": {"test_system": "FOXP3/NFAT1", "test": "FOXP3/NFAT interaction by Alphascreen", "type": "binding", "settings": "alpha screen; Figure 6C", "protocol": "(§1) The screening of peptide binders to FOXP3 was performed by surface plasmon resonance (SPR) using a ProteOn XPR36 (Bio-Rad, Hercules CA, USA) optical biosensor. Recombinant protein FOXP3-6His produced and purified from E-coli was immobilized covalently onto a GLC sensor chip (Bio-Rad) using the coupling reagents sulfo-NHS (N-Hydroxysulfosuccinimide) and EDC (1-Ethyl-3-(3-dimethylaminopropyl) carbodiimide, (Bio-Rad) as previously described. Peptide solutions (10 μM) were injected by triplicate in running buffer (phosphate-buffered saline, 0.005% (v/v) Tween 20, pH 7.4) at a flow of 30 μL/min. The interspot signal (obtained in the chip surface not immobilized with protein) was used as reference. FOXP3/NFAT1 and FOXP3/AML1 interactions were analyzed by Alphascreen technology as previously described according to the manufacturer’s protocol (Perkin Elmer, Benelux). Reactions were performed in a 40 μL final volume in 96-well Optiwell microtiter plates (Perkin Elmer). […] FOXP3/AML1 interaction was measured following a similar protocol using FOXP3-GST and AML1-His proteins. Exposure of the reaction to direct light was avoided as much as possible, and the emission of light from the acceptor beads was measured in the EnVision plate reader after the indicated incubation period (Perkin Elmer, Benelux)."}, "[2]": {"test_system": "Foxp3–NFAT interaction", "test": "Co-immunoprecipitation and Western blot of Flag-Foxp3 and HA-NFAT in HEK293 cells", "type": "cell-based", "settings": "HEK293 cells transfected with Flag-Foxp3 and HA-NFAT, peptide 100 μM; Figure 7", "protocol": "HEK293 cells were cultured in Dulbecco modified Eagle medium (Invitrogen) supplemented with 8% heat-inactivated fetal calf serum (FCS), penicillin, and streptomycin (Invitrogen) at 37 °C and 5% CO2. Plasmids cells were grown to 50% confluence in 6-well plates (Nunc) and transfected with a mixture of 2 μg of DNA plasmids (1 μg of FLAG-FOXP3 (expressing Foxp3 linked to the DYKDDDDK peptide tag and 1 μg of HA-NFAT expressing NFAT linked to the […] peptide tag), kindly provided by Dr Paul, Coffer, Utrech, The Netherlands)) and 8 μL PEI (polyethylenimine) overnight; the next day, cells were treated with 393–403 L, 397–406 C, or an irrelevant peptide at 100 μM. Twenty four hour later, HEK 293 cells were lysed in NP40 lysis buffer (0.05 M Tris-HCl pH 7.5, 0.5% Nonidet P40, 0.15 M NaCl, 0.01 M EDTA) containing a HALT^TM protease inhibitor cocktail (ThermoScientific), and immunoprecipitation was performed utilizing anti-FLAG coupled beads (Sigma) during 2 h at 4 C. Beads were washed 3x in lysis buffer, boiled, and samples were separated by SDS-PAGE, electrophoretically transferred to polyvinylidene difluoride membrane (Millipore, Bedford, MA), and hybridized with antibodies as indicated. Immunocomplexes were detected using enhanced chemiluminescence (Biorad)."}, "[3]": {"test_system": "murine CD4+CD25+ Treg cells", "test": "In vitro Treg inhibition: anti-CD3 stimulated effector T cells co-cultured with Treg cells, tritiated thymidine incorporation", "type": "cell-based, mouse", "settings": "peptide 50 μM, BALB/c Teff 10^5 + Treg 10^4 cells/well, 3 days, tritiated thymidine", "protocol": "(§2) In vitro assays were carried out using (i) the Karpas 299 human cell line (ACC-31, DSMZ, Germany), derived from a human lymphoma with a regulatory T cell profile or (ii) using natural Treg cells isolated from the murine splenocytes. To evaluate the effect of peptides on the immunosuppressive activity of the Karpas 299 cell line, a “mixed lymphocyte reaction” (MLR) assay was carried out using peripheral blood mononuclear cells (PBMCs) from two donors (previously tested to induce a strong MLR reaction in co-culture) (1 × 10^5 cells/well per each PBMC) in the presence or absence of Karpas 299 (1 × 10^4 cells/well). Peptides were added at 50 μM to the co-cultures to evaluate their capacity to restore the production of interferon-gamma (IFN-γ) inhibited by Karpas 299. After 48 hours, the supernatants were extracted to measure interferon-gamma (IFN-γ) by means of a commercial ELISA (Pharmingen, San Diego, CA, US). In vitro assays for Treg inhibition using natural Treg cells: Murine CD4+CD25+ (Treg cells), and CD4+CD25-T-cells (effector T cells) were purified from murine spleen cells by using a murine regulatory T-cell isolation kit (Miltenyi Biotec, Bergisch Gladbach, Germany) according to the manufacturer’s instructions. The purity of the resulting T-cell populations was confirmed to be >95% by flow cytometry. Inhibition of murine T regulatory cell function was measured in an in vitro assay of T-cell stimulation. Effector T cells (10^5 cells/well) from BALB/c mice were stimulated in vitro with 2, 5 μg/mL of anti-mouse CD3 antibody (Pharmingen) in the presence/absence of purified Treg cells (10^4 cells/well) and the indicated peptides (50 μM). T-cell proliferation was measured 3 days later as previously described. Percentage of Treg inhibition was calculated using the following formula: % inhibition= 100*((cpm of Teff&Treg co-cultures in the presence of peptide - cpm of Teff&Treg co-cultures)/(cpm of Teff - cpm of Teff&Treg co-cultures)). The Institutional Review Board on Human Subjects (Clínica Universidad de Navarra, Ref 2016.118) approved this research, and informed consent was obtained from all blood donors."}, "[4]": {"test_system": "hepatocellular carcinoma", "settings": "murine model of hepatocellular carcinoma; cited from earlier work", "from_the_text": "(§3) We have also focused on the screening campaign of peptides derived from the FOXP3 FKH domain (Section 3.3). Although we identified several peptides encompassing the intermediate region of FKH with high capacity to bind to FOXP3, we focused on peptide […]-407, based on its ability to inhibit Treg activity in vitro."}, "[5]": {"test_system": "FOXP3:NFAT", "settings": "cited from earlier work", "from_the_text": "as §3"}, "[6]": {"settings": "cited from earlier work", "from_the_text": "as §3"}, "[7]": {"test_system": "T-cells", "settings": "cited from earlier work", "from_the_text": "We focused on a peptide encompassing aminoacids 393–403, which correspond to a region implicated in FOXP/NFAT interaction, which is also key for Treg suppressive activity. FOXP3/NFAT interaction can regulate NFAT activity by (i) competing for binding to DNA [60, 61], (ii) by sequestering NFAT or other NFAT partners, or (iii) by forming a cooperative complex. The cooperative complex between FOXP3 and NFAT is required to repress the expression of the cytokine IL2, upregulate the expression of the Treg markers CTLA4 and CD25, and confer suppressor function. ..."}, "[8]": {"test_system": "FOXP3 homodimerization", "test": "FOXP3 dimerization by Alphascreen", "type": "binding", "settings": "alpha screen"}, "[9]": {"test_system": "FOXP3/AML1", "settings": "cited from earlier work", "from_the_text": "(§4) A P60 peptide optimization program including alanine scanning, the introduction of D-aminoacids, or head-to-tail cyclization allowed us to improve its stability and efficacy in vitro and in vivo [23]."}, "[10]": {"test_system": "FOXP3 homodimerization", "settings": "cited from earlier work", "from_the_text": "as §4"}, "[11]": {"test_system": "4T1-FOXP3 cells", "test": "Proliferation of 4T1-Ctrl and 4T1-FOXP3 tumor cells in vitro", "type": "cell-based", "settings": "peptide 50 μM, Figure 2C", "protocol": "The cell line 4T1-FOXP3 expressing FOXP3 was generated. 4T1-WT cells were transfected with empty pcDNA3.1 or with pcDNA3.1 FOXP3, expressing FOXP3 gene and neomycin (which confers resistance to G418 antibiotic) to generate 4T1-Ctrl and 4T1-Foxp3 cells. Briefly, 8 × 10^5 cells were seeded in 6-well culture plates one day prior to transfection. The cultures were 60–80% confluent at the time of transfection. Cells were transfected with 5 ug plasmid DNA per well for 6 hours using lipofectimine 2000 transfection reagent (Invitrogen). After 48 hours, 0.3 mg/mL of G418 drug (GIBCO) was added to the culture during 14 days for the selection of resistant cells. These cells were used in vitro to measure the effect of peptides to overcome the proliferative capacity inhibited by FOXP3. In addition, 4T1-FOXP3 and 4T1-Ctrl cells were injected in vivo (10^5 cells/ mouse) subcutaneously or intravenously to compare their capacity to induce tumors and lung metastases. Murine Lewis lung carcinoma expressing OVA, LLCOVA were kindly provided by Dr. Daniel Ajona (CIMA). The murine colon adenocarcinoma cell line MC38, LLOOVA, 4T1-Ctrl, and 4T1-FOXP3 were cultured in mouse medium (RPMI 1640, 10% fetal calf serum (Sigma), 100 U/mL penicillin, 100 μg/mL streptomycin (Invitrogene), […] Gentamicin (Gibco), 2 mM L-Glutamine (Lifetechnologies), […] β-mercaptoethanol (Sigma), and fungizone (GIBCO). All cell lines were cultured at 37 °C in a humidified atmosphere with 6.5% CO2."}, "[12]": {"test_system": "Karpas 299 human cell line", "test": "Mixed lymphocyte reaction with Karpas 299 Treg cell line, IFN-γ by ELISA", "type": "cell-based", "settings": "MLR of PBMCs from two donors + Karpas 299, peptide 50 μM, 48 h", "protocol": "as §2"}, "[13]": {"test_system": "FOXP3", "settings": "cited from earlier work", "protocol": "(§5) The P60 peptide was able to improve the antitumor effect of other immunotherapeutic approaches constituting a potential candidate drug to inhibit Treg activity. An alanine scanning was conducted to identify key positions within the P60 sequence for FOXP3 binding P60. The introduct ..."}, "[14]": {"test_system": "Treg", "settings": "cited from earlier work", "protocol": "as §5"}, "[15]": {"settings": "cited from earlier work", "protocol": "as §5", "remark": "listed apart in the source"}, "[16]": {"test_system": "FOXP3/AML1", "test": "FOXP3/AML1 interaction by Alphascreen", "type": "binding", "settings": "Figure 3C", "protocol": "as §1"}}}
{"substance": "397–406 C: macrocycle consisting of a head-to-tail cyclization of peptide 397–406 (RVESEKGAVW; head-to-tail (backbone) cyclization)", "values": [{"measurement": "disruption of FOXP3-NFAT heterodimerization", "setting": "[1]", "value": "retained the activity to impair Foxp3/NFAT interaction"}, {"measurement": "interaction between Foxp3 and NFAT by co-immunoprecipitation", "setting": "[2]", "value": "able to reduce significantly the interaction"}, {"measurement": "Treg inhibitory capacity in vitro (proliferation of effector T cells with anti-CD3 in presence of Treg)", "setting": "[3]", "value": "improved the Treg inhibitory capacity"}]}
{"substance": "KCFVRVESEKG [F393–403, truncated version of peptide F393–407]", "values": [{"measurement": "antitumor activity of in vivo peptide administration", "setting": "[4]", "value": "had antitumor activity"}, {"measurement": "FOXP3:NFAT interaction", "setting": "[5]", "value": "able to inhibit FOXP3:NFAT interaction"}, {"measurement": "pharmacokinetics in vivo", "setting": "[6]", "value": "poor pharmacokinetics in vivo"}, {"measurement": "interaction between Foxp3 and NFAT by co-immunoprecipitation", "setting": "[2]", "value": "able to reduce significantly the interaction"}, {"measurement": "T-cell proliferation and cytokine production in response to TCR stimulation", "setting": "[7]", "value": "enhanced T-cell proliferation and the production of cytokines IL-2, IFN-γ, or IL-17"}, {"measurement": "Treg inhibitory capacity in vitro (proliferation of effector T cells with anti-CD3 in presence of Treg)", "setting": "[3]", "value": "able to inhibit Treg activity in vitro"}]}
{"substance": "KEKLSAMQAHLAGKM [p250–265, 15-mer peptide from the leuzin zipper domain of FOXP3]", "values": [{"measurement": "Treg inhibitory capacity in vitro (proliferation of effector T cells with anti-CD3 in presence of Treg)", "setting": "[3]", "value": "able to fully restore the proliferative capacity of effector T-cells"}, {"measurement": "inhibitory activity on FOXP3 homodimerization", "setting": "[8]", "value": "could not demonstrate an inhibitory activity"}]}
{"substance": "RDFQSFRKMWPFFAM [p60]", "values": [{"measurement": "FOXP3/AML1 interaction", "setting": "[9]", "value": "impairing"}, {"measurement": "FOXP3 dimerization", "setting": "[10]", "value": "impairing FOXP3 dimerization"}, {"measurement": "effect on tumor-suppressor activity of FOXP3 (proliferation of 4T1-FOXP3 versus 4T1-Ctrl cells)", "setting": "[11]", "value": "does not alter the antitumor activity of FOXP3"}, {"measurement": "Treg inhibitory capacity (Karpas MLR assays)", "setting": "[12]", "value": "potential Treg inhibitory capacity"}, {"measurement": "FOXP3 nuclear translocation", "setting": "[13]", "value": "impair FOXP3 nuclear translocation"}, {"measurement": "Treg activity in vitro and in vivo", "setting": "[14]", "value": "inhibit Treg activity in vitro and in vivo"}, {"measurement": "ability to enter into the cells", "setting": "[15]", "value": "able to enter into the cells"}]}
{"substance": "SLFAVRRHLWGSHGN [F304–318]", "values": [{"measurement": "disruption of FOXP3/AML1 heterodimerization", "setting": "[16]", "value": "able to impair FOXP3/AML1 heterodimerization"}, {"measurement": "Treg inhibitory capacity in vitro (proliferation of effector T cells with anti-CD3 in presence of Treg)", "setting": "[3]", "value": "able to inhibit Treg activity"}]}
